# “Also recorded” adds a separate entry of the source.
# Legend:
# [1] = Plasma pharmacokinetics of minocycline, single ascending dose (SAD) phase, 1 hour intravenous infusion; design: species or system human (healthy adult subjects); conditions: human, in vivo; for half-life: mean, N=8
# Description: (§1) This example describes outcomes among healthy adult subjects in a randomized, double-blind, placebo-controlled, single- and multiple ascending dose (SAD/MAD) study of 6 intravenous doses (cohorts) ranging from 100 mg to 600 mg of minocycline. […] Within each cohort, subjects received a single dose on Day 1, followed by a loading dose on Day 4, then 7 days of twice-daily dosing (Days 4-10), followed by a single dose on Day 11 as shown in Table 1. Within each cohort, subjects were randomly assigned to minocycline (n=8) or normal saline placebo (n=2). Serial blood and urine samples were collected for pharmacokinetic assessment. All infusions were administered over 1 hour. Plasma samples were obtained at 1 (end-of-infusion), 2, 4, 8, 12, 18, 24, 36, 48, and 72 hours after the start of dosing after single or multiple doses and assayed for minocycline content using a validated HPLC/MS method. Concentration of minocycline in healthy volunteers after a one hour IV infusion is shown in FIG. 1, while concentration of minocycline in healthy volunteers after a loading dose then twice daily dosing for seven days is shown in FIG. 2.
# [2] = Plasma pharmacokinetics of minocycline, twice-daily ascending dose (MAD) phase, loading dose then BID dosing for 7 days; design: species or system human (healthy adult subjects); conditions: human, in vivo; for AUC(0-t): AUC0-t; for clearance: Cl (plasma clearance); for Vd: Vss (volume of distribution at steady state); for half-life: mean; for Cmax: iv
# Description: as §1
# [3] = Plasma pharmacokinetics of minocycline, single ascending dose (SAD) phase, 1 hour intravenous infusion; design: species or system human (healthy adult subjects); conditions: human, in vivo; single 600 mg IV dose, mean, N=9
# [4] = Safety and tolerability (adverse events) in the SAD/MAD study of intravenous minocycline; format: in vivo, human (healthy adult subjects)
# Description: This example describes outcomes among healthy adult subjects in a randomized, double-blind, placebo-controlled, single- and multiple ascending dose (SAD/MAD) study of 6 intravenous doses (cohorts) ranging from 100 mg to 600 mg of minocycline. Each cohort consisted of 10 subjects (8 active drug and 2 placebo). Within each cohort, subjects received a single dose on Day 1, followed by a loading dose on Day 4, then 7 days of twice-daily dosing (Days 4-10), followed by a single dose on Day 11 as shown in Table 1. Within each cohort, subjects were randomly assigned to minocycline (n=8) or normal saline placebo (n=2). Serial blood and urine samples were collected for pharmacokinetic assessment.
# Safety was assessed throughout the study. Of the adverse events (AE) observed in more than 10% of subjects, the vast majority were assessed by the investigator as likely to be related to study drug (Table 5). A total of 21 subjects out of 57 discontinued the trial. Six of 10 subjects in cohort 4 discontinued during the MAD portion (400 mg BID) of the trial due to mild to moderate dizziness. Dosing was discontinued in the remaining 4 subjects in that cohort and cohorts 5 and 6 were limited to 300 mg BID for the MAD portion of the trial. Four subjects in cohort 6 (600 mg/300 mg) discontinued due to nausea.
compound,measurement,setting,value
CN(C)c1ccc(O)c2c1C[C@H]1C[C@H]3[C@H](N(C)C)C(O)=C(C(N)=O)C(=O)[C@@]3(O)C(O)=C1C2=O [minocycline],Dose proportionality of exposure,[1]; iv,increased in a dose proportional fashion with exception of the 500 mg dose
same,AUC(0-inf),"[1]; iv, 100 mg",9730 ng·h/mL
same,clearance,"[1]; iv, 100 mg",175 mL/min
same,AUC(0-inf),"[1]; iv, 200 mg",25900 ng·h/mL
same,clearance,"[1]; iv, 200 mg",137 mL/min
same,AUC(0-inf),"[1]; iv, 300 mg",39200 ng·h/mL
same,clearance,"[1]; iv, 300 mg",138 mL/min
same,AUC(0-inf),"[1]; iv, 400 mg",63600 ng·h/mL
same,clearance,"[1]; iv, 400 mg",112 mL/min
same,AUC(0-inf),"[1]; iv, 500 mg",53800 ng·h/mL
same,clearance,"[1]; iv, 500 mg",171 mL/min
same,AUC(0-inf),"[1]; iv, 600 mg",83000 ng·h/mL
same,clearance,"[1]; iv, 600 mg",135 mL/min
same,half-life,[1]; single 100 mg IV dose,11.1 h
same,half-life,[1]; single 200 mg IV dose,13.7 h
same,half-life,[1]; single 300 mg IV dose,16.6 h
same,half-life,[1]; single 400 mg IV dose,17.6 h
same,half-life,[1]; single 500 mg IV dose,14.4 h
same,AUC(0-t),[2]; 100 mg,27500 ng·h/mL
same,clearance,[2]; 100 mg,58.2 mL/min
same,Vd,[2]; 100 mg,72 L
same,half-life,"[2]; 100 mg, single dose 100 mg, BID dosing 100 mg, N=6",15.9 h
same,AUC(0-t),[2]; 200 mg,80700 ng·h/mL
same,clearance,[2]; 200 mg,41.3 mL/min
same,Vd,[2]; 200 mg,58.4 L
same,half-life,"[2]; 200 mg, single dose 200 mg, BID dosing 200 mg, N=6",18.2 h
same,AUC(0-t),[2]; 300 mg,174000 ng·h/mL
same,clearance,[2]; 300 mg,32 mL/min
same,Vd,[2]; 300 mg,47 L
same,half-life,"[2]; 300 mg, single dose 300 mg, BID dosing 300 mg, N=7",19.8 h
same,half-life,"[2]; 300 mg, single dose 500 mg, BID dosing 300 mg, N=7",18.1 h
same,half-life,"[2]; 300 mg, single dose 600 mg, BID dosing 300 mg, N=4",20.2 h
same,half-life,"[2]; 300 mg, single dose 300, 500, or 600 mg (pooled), BID dosing 300 mg, N=18",19.2 h
same,clearance,[2],44 mL/min
same,Vd,[2],58.1 L
same,Cmax,[2]; 100 mg,1710 ng/mL
same,Cmax,[2]; 200 mg,4590 ng/mL
same,Cmax,[2]; 300 mg,8910 ng/mL
same,half-life,[3],17.3 h
same,Maximum tolerated multi-dose,"[4]; administered twice daily, IV",300 mg
same,Subjects discontinued due to nausea in cohort 6,[4]; cohort 6 (600 mg/300 mg),Four
same,"Subjects reporting study drug related adverse events, %","[4]; human, in vivo",79.9%
same,"Subjects who discontinued the trial, total","[4]; human, in vivo",21
same,"Subjects with dizziness, %","[4]; human, in vivo",59.4%
same,"Subjects with dizziness, number","[4]; human, in vivo",41
same,"Subjects with moderate nausea and/or dizziness, number","[4]; human, in vivo",9
same,"Subjects with nausea, %","[4]; human, in vivo",50.7%
same,"Subjects with nausea, number","[4]; human, in vivo",35
same,Subjects discontinued from study drug in the 400 mg cohort (cohort 4),"[4]; human, in vivo, 7 days",6
same,Tolerability of single intravenous doses,[4]; single IV doses up to 600 mg,tolerated reasonably well
same,Serious adverse events,"[4]; whole SAD/MAD study, 100 mg to 600 mg IV",No serious adverse events occurred; also recorded: No serious adverse events (SAEs) were reported
same,Most common adverse effects,[4]; whole study,mild nausea and dizziness

# — patent US20210052608A1, “METHODS OF TREATING BACTERIAL INFECTIONS WITH MINOCYCLINE” (Melinta Therapeutics, Inc., priority 2018, published 2021)
